Entries after “also recorded” stand apart in the source; their conditions may differ. Oligonucleotides are written 5' to 3', each unit as a sugar letter and its base; * is a phosphorothioate linkage, no mark a phosphodiester; rarer units and linkages stand in square brackets, end groups in braces. Plain capitals give the bases only. e = 2'-O-(2-methoxyethyl) (MOE); [5mC] = 5-methylcytosine
Experiments:
IKAP protein = IKAP protein levels in GM04899 fibroblasts (SDS-PAGE, anti-IKAP antibody, band intensity); assay type: cell-based, human
Procedure: Protein samples were obtained by Trizol extraction and separated by SDS-PAGE. The bands were transferred onto a nitrocellulose membrane and probed with an anti-IKAP antibody (abcam #ab56362) (1:1,000 dilution in 5% milk in TBST) for 12 hrs. The membrane was washed 5 times with TBST for 5 min each and then probed with secondary antibody 800 nm LiCor (1:5,000 in 5% milk in TBST) for 1 hr in the dark. The membrane was subsequently washed 5 times with TBST for 5 min each. The bands were then exposed at 800 nm and band intensity was quantified using an Odyssey (LiCor) instrument. The results are presented in Table 4 as percent increase in band intensity compared to the control oligonucleotide-treated bands.

[1] = test system: IKBKAP mRNA in GM04899 fibroblasts; experiment: Exon 20 inclusion in FD patient skin fibroblast line GM04899 (RT-PCR); assay type: cell-based, human; conditions: for % inclusion of exon 20: Lipofectamine 2000, two days, relative to IMR90 cells (100%)
Procedure: To investigate the effect of ISIS 421992 on patient-derived fibroblasts, the patient skin fibroblast line GM04899 (Coriell Cell Repository) was utilized. The cell line was derived from an individual homozygous for the major FD mutation.
GM04899 was cultured in minimal essential medium (Invitrogen) supplemented with non-essential amino acids (Invitrogen) and 20% (v/v) fetal bovine serum. The cells were grown to 40-50% confluence in 10-cm dishes. Cells were transfected with 2 nM, 5 nM, 25 nM, or 125 nM concentrations of ISIS 421992 using 12 μL Lipofectamine 2000 transfection reagent (Invitrogen). Two days later, cDNA synthesized from total RNA extracted from HEK-293 cells was amplified using the forward primer pCDNAF and reverse primer sequence IKAP21R4 to assay the splicing pattern of expressed RNAs by RT-PCR. To calculate exon 20 inclusion levels, the PCR amplicons were labeled with α^32P-dCTP. The PCR products were then separated by native PAGE, followed by phosphorimage analysis. The band intensities were quantified and values were normalized for the G+C content according to the DNA sequence. Multiple lanes for each condition represent independent experiments.
A batch of cells was treated with solvent (NaOH) only of the kinetin solution as a control. RNA from IMR90, a wild-type normal diploid lung fibroblast cell line was used as positive control. The results are expressed as percent inclusion of exon 20 compared to the exon 20 inclusion (100%) of IKBKAP mRNA in IMR90 cells.

human IKBKAP mRNA [2] = experiment: Exon 20 inclusion in neonatal transgenic mice after single ICV or subcutaneous injection; assay type: in vivo, mouse; conditions: neonatal Tg mice
Procedure: (§1) To investigate the effect of ISIS 421992 in an animal model, transgenic mice that carry the entire human IKBKAP gene with the major FD mutation, in addition to being homozygous wild type at the mouse Ikbkap locus, were obtained from an NIH core facility.
Neonatal transgenic mice were also treated with ISIS 421992 administered as a single ICV injection dose of 2.5 μg, 5 μg, 10 μg, 20 μg, or 30 μg. A group of neonatal mice were treated with ISIS 421992 administered subcutaneously using a 10 μL micro syringe (Hamilton) and a 33-gauge needle. In all cases, the injections were administered at P1 and the RNA was assayed at P8. The RNA splicing patterns in the various tissues after administering ISIS 421992 in neonate mice were then observed. Multiple lanes for each condition represent independent experiments.

human IKBKAP mRNA [3] = experiment: Exon 20 inclusion in adult transgenic mice after intracerebroventricular infusion; assay type: in vivo, mouse; conditions: for Percent inclusion of exon 20 in human IKBKAP mRNA: thoracic spinal cord, day 8
Procedure: as §1
Adult mice were treated with ISIS 421992 administered by intracerebroventricular infusion at the rate of 50 μg/day, 100 μg/day, or 200 μg/day. The protocol has been previously described by Hua et al. (Genes Dev. 2010. 24: 1634-1644). Adult mice 3-4 months old and weighing 20-30 g, were anesthetized and placed on a digital stereotaxic instrument (David Kopf Instruments). A small burr hole at the surgical site 1.8 mm lateral to the sagittal suture and 0.3 mm posterior to the bregma suture was drilled through the skull above the right lateral ventricle. A cannula with a 2.2 mm stylet was positioned in the hole. The cannula was connected to an Alzet micro-osmotic pump (model 1007D, Durect Corporation) with a vinyl catheter. The pump, prefilled with the oligonucleotide solution or PBS only was implanted subcutaneously on the back and continuously infused the solution through the cannula into the lateral ventricle at a rate of 0.5 μL per hour. After a week of ICV infusion, the mice were euthanized on day 8 and RNA from the thoracic spinal cord of the transgenic mice was extracted using Trizol and following the manufacturer's protocol. Multiple lanes for each condition represent independent experiments.

ISIS 421992: uniform 2′-MOE 20-mer, phosphate backbone; GTCGCAAACAGTACAATGGC, SEQ ID NO 61, intron 20 (eGeTe[5mC]eGe[5mC]eAeAeAe[5mC]eAeGeTeAe[5mC]eAeAeTeGeGe[5mC])
Percent increase in protein band intensity (IKAP) (IKAP protein; GM04899, 2 nM as printed in Table 4, 3 days after transfection, compared to control oligonucleotide-treated bands): 76% | IKAP protein levels, in words (IKAP protein; GM04899, 5 nM, assayed 3 days after transfection): significant increase in IKAP protein levels | % inclusion of exon 20 ([1]; GM04899, 2 nM): 79% | % inclusion of exon 20 ([1]; GM04899, 5 nM): 95% | % inclusion of exon 20 ([1]; GM04899, 25 nM): 96% | % inclusion of exon 20 ([1]; GM04899, 125 nM): 97% | effect on the splicing defect / full-length mRNA levels, in words ([1]; GM04899 fibroblasts): almost completely suppressed the splicing defect; also recorded: as effective as treatment with kinetin for 3 days in restoring full-length mRNA levels | tissue pattern of full-length IKBKAP mRNA, in words (human IKBKAP mRNA [2]; ICV administration): increased full-length IKBKAP mRNA in the brain and spinal cord, with moderate effects in the peripheral tissues | Percent inclusion of exon 20 in human IKBKAP mRNA (human IKBKAP mRNA [2]; ICV administration, Brain): 50% | Percent inclusion of exon 20 in human IKBKAP mRNA (human IKBKAP mRNA [2]; ICV administration, Heart): 40% | Percent inclusion of exon 20 in human IKBKAP mRNA (human IKBKAP mRNA [2]; ICV administration, Kidney): 33% | Percent inclusion of exon 20 in human IKBKAP mRNA (human IKBKAP mRNA [2]; ICV administration, Liver): 44% | Percent inclusion of exon 20 in human IKBKAP mRNA (human IKBKAP mRNA [2]; ICV administration, Muscle): 33% | Percent inclusion of exon 20 in human IKBKAP mRNA (human IKBKAP mRNA [2]; ICV administration, Spinal Cord): 47% | Percent inclusion of exon 20 in human IKBKAP mRNA (human IKBKAP mRNA [2]; s.c. injection, Brain): 18% | Percent inclusion of exon 20 in human IKBKAP mRNA (human IKBKAP mRNA [2]; s.c. injection, Heart): 58% | Percent inclusion of exon 20 in human IKBKAP mRNA (human IKBKAP mRNA [2]; s.c. injection, Kidney): 36% | Percent inclusion of exon 20 in human IKBKAP mRNA (human IKBKAP mRNA [2]; s.c. injection, Liver): 72% | Percent inclusion of exon 20 in human IKBKAP mRNA (human IKBKAP mRNA [2]; s.c. injection, Muscle): 60% | Percent inclusion of exon 20 in human IKBKAP mRNA (human IKBKAP mRNA [2]; s.c. injection, Spinal Cord): 19% | Percent inclusion of exon 20 in human IKBKAP mRNA (human IKBKAP mRNA [2]; single ICV injection 2.5 μg at P1, RNA at P8): 13% | Percent inclusion of exon 20 in human IKBKAP mRNA (human IKBKAP mRNA [2]; single ICV injection 5 μg at P1, RNA at P8): 18% | Percent inclusion of exon 20 in human IKBKAP mRNA (human IKBKAP mRNA [2]; single ICV injection 10 μg at P1, RNA at P8): 34% | Percent inclusion of exon 20 in human IKBKAP mRNA (human IKBKAP mRNA [2]; single ICV injection 20 μg at P1, RNA at P8): 36% | Percent inclusion of exon 20 in human IKBKAP mRNA (human IKBKAP mRNA [2]; single ICV injection 30 μg at P1, RNA at P8): 48% | tissue pattern of full-length IKBKAP mRNA, in words (human IKBKAP mRNA [2]; subcutaneous administration): primarily affected expression in the liver, skeletal muscle, and heart with moderate effects in the CNS | Percent inclusion of exon 20 in human IKBKAP mRNA (human IKBKAP mRNA [3]; ICV infusion 50 μg/day for a week): 40% | Percent inclusion of exon 20 in human IKBKAP mRNA (human IKBKAP mRNA [3]; ICV infusion 100 μg/day for a week): 46% | Percent inclusion of exon 20 in human IKBKAP mRNA (human IKBKAP mRNA [3]; ICV infusion 200 μg/day for a week): 60% | inclusion of exon 20 in human IKBKAP mRNA, in words (human IKBKAP mRNA [3]; ICV infusion 50-200 μg/day): dose-dependent increase in the inclusion of exon 20

Reference: patent US11066668B2, “Compositions and methods for modulation of IKBKAP splicing” (Ionis Pharmaceuticals, Inc., priority 2012, dated 2021)
